Patent US20210293788A1, “METHOD FOR IDENTIFYING A CHEMICAL COMPOUND OR AGENT INDUCING UBIQUITINATION OF A PROTEIN OF INTEREST” (CeMM - Forschungszentrum fur Molekulare Medizin GmbH, priority 2018, published 2021)
“Also recorded” adds a separate entry of the source. Each block holds one compound with its values, some of them ahead of it.

Assays:
[1] = tested on: CRBN; experiment: CRBN levels by western blot after CSN5i-3 treatment (autodegradation); assay type: cell-based, human
Text: As a first approach, the levels of cereblon (CRBN), the SR of the CRL4^CRBN E3 ligase machinery, were checked by western blot (WB) in the mutant backgrounds. A strong decrease in CRBN levels in the COPS8 (COP9 signalosome complex subunit 8)-mutant cells was observed, and a less prominent downregulation in the CAND1-deficient cells (FIG. 1B). […] The CSN-impaired condition was used as a focus as this condition was sought to chemically mimic the genetic mutants. […] CRBN destabilization following CSN5i-3 treatment were rescued in CUL4A-deficient cells (FIG. 1E) or in cells lacking UBE2G1 (ubiquitin-conjugating enzyme E2 G1), a E2 ubiquitin-conjugating enzyme previously related to target degradation via the CRL4^CRBN ligase (FIG. 1F).

[2] = tested on: CRL substrate receptors (SRs) in KBM7 cells; experiment: Global expression proteomics of substrate receptors after CSN5i-3 treatment; assay type: cell-based, human; details: 1 μM, 8 h, versus DMSO
Description: In order to survey in an unbiased manner the subset of SRs undergoing autodegradation, global expression proteomics was applied to the different genetic backgrounds: WT, COPS8-mutant and CAND1-deficient KBM7 cells. In addition, expression proteomics following cellular treatment with CSN5i-3 was employed (1 μM, 8 h) (FIG. 1G-I).

[3] = biological target: T1, DCAF15 (Homo sapiens, UniProt Q66K64); experiment: DCAF15 HiBit/LgBit luciferase assay (knock-in or ectopic, live-cell or lytic detection); assay type: cell-based
T1 construct: expressed in transfected cells
T1 sequence (Q66K64 whole entry): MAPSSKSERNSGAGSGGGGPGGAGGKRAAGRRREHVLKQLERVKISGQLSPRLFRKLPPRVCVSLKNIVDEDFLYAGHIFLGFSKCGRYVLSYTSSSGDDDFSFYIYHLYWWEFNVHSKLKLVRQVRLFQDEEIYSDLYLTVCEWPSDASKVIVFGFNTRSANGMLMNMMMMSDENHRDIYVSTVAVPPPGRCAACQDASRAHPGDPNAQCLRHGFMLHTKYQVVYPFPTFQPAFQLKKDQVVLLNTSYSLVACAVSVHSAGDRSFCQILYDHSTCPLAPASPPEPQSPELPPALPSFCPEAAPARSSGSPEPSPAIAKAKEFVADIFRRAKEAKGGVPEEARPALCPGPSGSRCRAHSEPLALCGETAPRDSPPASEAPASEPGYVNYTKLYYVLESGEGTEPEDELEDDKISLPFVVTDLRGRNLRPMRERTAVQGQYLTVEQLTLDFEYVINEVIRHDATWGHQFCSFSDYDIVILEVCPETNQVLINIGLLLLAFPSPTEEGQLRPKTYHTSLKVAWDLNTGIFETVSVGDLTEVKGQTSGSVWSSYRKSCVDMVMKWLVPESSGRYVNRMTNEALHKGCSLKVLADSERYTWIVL
Description: Generation of HiBit DCAF15 knock-in cells: HEK293t WT cells at 70-80% confluency were transiently transfected in a 6 well plate with a mix of 3 ug Cas9-sgRNA vector (PX458, addgene #48138, containing sgRNA [NT]), 6 ug of single stranded oligonucleotide donor (ssOND, 20 bp homology flanking the cut site) and 3.6 ug polyethylenimine (FIGS. 10 and 12). 72 hrs post-transfection cells were sorted (SH800 Cell sorter, SONY) for GFP positive cells and recovered for 24 hrs in media. Cells were subsequently seeded at a limiting dilution to generate single clones. Clones were tested after outgrowth for HiBit expression by seeding clonal cells in a black clear bottom 384 well plate and adding Nano-Glo HiBit Lytic buffer (Promega, N3030) reconstituted with recombinant LgBit and Nano-Glo HiBit Lytic Substrate in a 1:1 ratio. HiBit-expressing clones were validated by western blotting and detection of luciferase signal (Promega, N2410) at the correct size. For live cell luciferase detection (FIGS. 11 and 13) 7000 HEK293t cells with a HiBit knock-in at the N-terminus of DCAF15 and stable ectopic expression of LgBit were seeded in 10 uL per well into a black, clear-bottom 384 well plate (Corning, #3764) and incubated over night. 20 uL of media containing 1× Endurazine (Promega, N2570) was added to each well and incubated for 1 hour followed by a baseline luciferase measurement using an EnVision plate reader (Perkin Elmer). Subsequently CSN5i-3 or an equal volume of DMSO was added in 10 uL of media to a final concentration of 500 nM in the assay volume of 40 uL. Luciferase signal was measured hourly for 24 hours. For lytic HiBit detection (FIGS. 11 and 14) 10000 cells were seeded in 10 uL per well into a black clear bottom 384 well plate. After recovery cells were treated by addition of iCSN5-3 or an equal volume of DMSO in 10 uL of media to the cells. After the indicated treatment time cells were lysed by adding 20 uL Nano-Glo HiBit Lytic buffer (Promega, N3030) reconstituted with recombinant LgBit and Nano-Glo HiBit Lytic Substrate. Luciferase signal of each well was normalized to the mean DMSO luciferase signal yielding fold-change over DMSO. Luciferase signal was detected essentially as stated for FIG. 13 with the exception that indisulam (Sigma-Aldrich, SML1225) was added together with CSN5i-3 to cells in 10 uL of media to reach the indicated final concentration (FIG. 15). Luciferase signal of each well and timepoint was normalized to the mean DMSO luciferase signal yielding fold-change over DMSO. […] Luciferase signal was detected essentially as stated for FIG. 15 with the exception that indisulam and dCEMM.1 were added together with iCSN5-3 to cells in the 10 uL treatment to a final concertation of 10 uM (FIG. 17). Luciferase signal of each well and timepoint was normalized to the mean DMSO luciferase signal yielding fold-change over DMSO.

[4] = tested on: KBM7 cells; experiment: Dose-ranging cellular viability assays in neddylation-impaired isogenic KBM7 cells; assay type: cell-based, human; details: for Cytotoxic activity / sensitivity in COPS8- or CAND1-modified cells: KBM7 cells modified in COPS8 or CAND1 versus non-modified control
Description: KBM7 cells mutated for five core genes were isolated and the underlying CRISPR-induced mutations were truncations leading to full knockouts (CAND1) or hypomorphic alleles (UBE2M, COPS8, COPS7B, GPS1). […] The observable shift in efficacy was at least 10-fold and up to 1000-fold, thus providing excellent signal to noise ratios. In sum, neddylation-impaired (NEDD^mut) cell line can be applied to find novel, yet uncharacterized MGs.
This is further exemplified when said cells are treated with the compound CC-885 (a molecular glue that reprograms the substrate receptor cereblon/CRBN to degrade GSPT1), or the PROTAC® compound THAL-SNS-032 (known to reprogram the substrate receptor cereblon/CRBN to degrade the cyclin dependent kinase 9, CDK9) (both see appended FIG. 22).
However, not for every cullin RING ligase (CRL), modifications of the COP9 signalosome subunit 8 (COPS8) or CAND1 (Cullin-associated NEDD8-dissociated protein 1; a substrate receptor exchange factor) lead to an ensuing destabilization via auto-degradation. An example for this is the substrate receptor VHL(von-Hippel-Lindau), which is part of the CRL2^VHL ligase complex. […] Therefore, measuring differential sensitivity of cells manipulated to contain altered neddylation states to a molecular glue/PROTAC® compound is a feasible surrogate to measure whether the substrate receptor that is reprogrammed by said molecular glue/PROTAC® undergoes destabilization/auto-degradation upon altering the neddylation states.

[5] = biological target: T2, CRBN (Homo sapiens, UniProt Q96SW2); experiment: Re-stabilization of CRBN by small-molecule degraders after CSN5i-3 pretreatment (western blot); assay type: cell-based; details: WT cells pretreated 2 h with DMSO, 25, 100 or 500 nM CSN5i-3, then 500 nM compound
T2 construct: endogenous in cells; host or cells: wild-type cells (KBM7 by context)
T2 sequence (Q96SW2 whole entry): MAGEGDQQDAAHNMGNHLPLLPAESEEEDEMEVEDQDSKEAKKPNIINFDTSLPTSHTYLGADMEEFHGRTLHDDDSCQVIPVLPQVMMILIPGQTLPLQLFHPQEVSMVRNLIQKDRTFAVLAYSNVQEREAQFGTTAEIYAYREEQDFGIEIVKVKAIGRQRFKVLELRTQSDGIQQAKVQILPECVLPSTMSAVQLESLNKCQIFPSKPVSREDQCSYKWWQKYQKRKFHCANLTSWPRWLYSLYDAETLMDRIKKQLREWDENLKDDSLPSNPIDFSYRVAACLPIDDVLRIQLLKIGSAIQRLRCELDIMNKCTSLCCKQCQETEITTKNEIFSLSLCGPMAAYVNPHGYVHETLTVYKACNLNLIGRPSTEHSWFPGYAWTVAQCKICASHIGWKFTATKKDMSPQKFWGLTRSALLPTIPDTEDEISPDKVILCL
Description: To explore the re-stabilization of SR upon ligand treatment, WT cells were pretreated with different doses of CSN5i-3 for 2h to firstly induce SR autodegradation. As a proof of principle, the SR CRBN was used, and the autodegradation by WB was checked (FIG. 2B-D).

[6] = biological target: T2, CRBN; experiment: CRBN HiBit bioluminescence assay in COPS8 knock-out cells (Example 2); assay type: cell-based; details: 4 hours of compound treatment
Description: Afterwards, CRISPR/Cas9 is used to knock-out the CSN (COP9 signalosome) subunit COPS8 (COP9 signalosome complex subunit 8). Ensuing loss of CRBN HiBit is assayed via immunoblot and loss of bioluminescence. […] After 4 hours of compound treatment, CRBNHiBit levels are assayed via bioluminescence by adding the detection reagent, which consists of a lysis buffer and recombinant LgBit protein. Within 10 minutes after addition of the detection reagent, luminescence is read with a standard plate reader, and is a proxy for drug-induced changes in CRBN levels.

[7] = biological target: T2, CRBN; experiment: Stabilization of CRBN by CC-885 pretreatment followed by CSN5i-3 (western blot); assay type: cell-based; details: 125 nM CC-885 for 15 or 30 min before 100 nM CSN5i-3 for 2 hours
Description: Cells were first pretreated with the small-molecule (CC-885) known to recruit a new substrate (GSPT1=Eukaryotic peptide chain release factor GTP-binding subunit ERF3A) to the substrate receptor CRBN of the CRL4^CRBN ligase. Pre-treatment was conducted for either 15 or 30 minutes. Afterwards, cells were treated with the CSN (COP9 signalosome) inhibitor (CNS5i-3) for 2 hours. […] This was shown in FIG. 3 by comparing lane 2 of the CRBN blot (pre-treatment with DMSO/vehicle control) to lanes 4 (15 min pre-treatment) and lane 6 (30 min pre-treatment) of the same western blot. The same blot also documents that the present invention provides for means and methods how to determine the neddylation status of cullins constituting CRLs. As evident from FIG. 3, cells comprising a normal neddylation status or a steady-state neddylation status show two bands corresponding to a non-neddylated and a neddylated cullin, respectively. Average increase of neddylated to non-neddylated approximately 9 kDa. […]

- DCAF15 level (luciferase signal) after CSN5i-3 ([3]; live cells, HiBit-HA knock-in at DCAF15 locus, 500 nM): DCAF15 destabilization
- DCAF15 level (luciferase signal) after CSN5i-3 ([3]; lytic detection, HiBit-HA knock-in at DCAF15 locus): DCAF15 destabilization
- DCAF15 level (luciferase signal) after CSN5i-3 ([3]; lytic detection, ectopic overexpression of HiBit-HA-DCAF15): DCAF15 destabilization
Compound: CC(C)n1nc(C(F)F)cc1C(=O)Nc1ccc([C@H]2[C@@H](O)CCCc3cncn32)c(-c2ccccc2)c1 [CSN5i-3]
- CRBN level (western blot) after CSN5i-3 ([1]; CUL4A-deficient cells (sgRNA targeting CUL4A)): Downregulation of CRBN is rescued
- CRBN level (western blot) after CSN5i-3 ([1]; cells lacking UBE2G1 (sgRNA), 100 nM CSN5i-3, 0, 2, 4 and 6 hours): rescued in cells treated with two sgRNAs targeting UBE2G1
- CRBN level (western blot) ([1]; cells treated with DMSO, MLN4924 or CSN5i-3): recapitulate CRBN downregulation; also recorded: Downregulation of CRBN is recapitulated
- CRBN abundance (expression proteomics) [2]: Downregulation of CRBN
- Substrate receptors destabilized (expression proteomics) [2]: only affected a subset of the SRs associated to each of the cullins

Compound: Cc1ncsc1-c1ccc([C@H](C)NC(=O)[C@@H]2C[C@@H](O)CN2C(=O)[C@@H](NC(=O)COCCCOCCNC(=O)C[C@@H]2N=C(c3ccc(Cl)cc3)c3c(sc(C)c3C)-n3c(C)nnc32)C(C)(C)C)cc1 [ARV-771]
- Cytotoxic activity / sensitivity in COPS8- or CAND1-modified cells [4]: sensitivity to ARV-771; also recorded: do not display an altered sensitivity

Compound: CC(C)(C)c1cnc(CSc2cnc(NC(=O)C3CCN(CC(=O)NCCOCCOCCOCCNc4cccc5c4C(=O)N(C4CCC(=O)NC4=O)C5=O)CC3)s2)o1 (stereo not drawn) [THAL-SNS-032]
- CRBN stabilization (western blot) ([5]; listed as SNS-THAL-032): time-dependent stabilization of CRBN; also recorded: CRBN was stabilized upon SNS-THAL-032 treatment in cells treated with DMSO, 25 nM and 100 nM CSN5i-3
- Cytotoxic activity / sensitivity in COPS8- or CAND1-modified cells [4]: reduced activity

Compound: Cc1sc2c(c1C)C(c1ccc(Cl)cc1)=N[C@@H](CC(=O)NCCCCCCCCNC(=O)COc1cccc3c1C(=O)N(C1CCC(=O)NC1=O)C3=O)c1nnc(C)n1-2 (stereo partly drawn) [dBET6]
- CRBN stabilization (western blot) [5]: time-dependent stabilization of CRBN; also recorded: CRBN was stabilized upon dBET6 treatment in cells treated with DMSO, 25 nM and 100 nM CSN5i-3
- CRBN HiBit levels (bioluminescence) [6]: quick stabilization of CRBN HiBit levels
- Cytotoxic activity / sensitivity in COPS8- or CAND1-modified cells [4]: reduced activity; also recorded: lose their cytotoxic activity
- Resistance of mutant cells in cellular viability assay ([4]; KBM7 cells mutated in CAND1, UBE2M, COPS8, COPS7B or GPS1 versus wild type): caused resistance

Compound: Cc1ccc(NC(=O)NCc2ccc3c(c2)CN(C2CCC(=O)NC2=O)C3=O)cc1Cl (stereo not drawn) [CC-885]
- CRBN stabilization (western blot) [5]: time-dependent stabilization of CRBN; also recorded: CRBN was stabilized upon CC-885 treatment in cells treated with DMSO, 25 nM, 100 nM and 500 nM CSN5i-3
- CRBN stabilization (western blot) [7]: protects from CRBN auto-degradation; also recorded: CRBN was stabilized upon CC-885 treatment in the presence of CSN5i-3
- Cytotoxic activity / sensitivity in COPS8- or CAND1-modified cells [4]: reduced activity; also recorded: lose their cytotoxic activity
